Laboratory results from patent publication US5658885A, “Amidino and guanidino substituted boronic acid inhibitors of trypsin-like enzymes” (The DuPont Merck Pharmaceutical Company, priority 1994, dated 1997).
Where a name gives a salt, the structure may show the parent alone.

molecular target: T1, human thrombin (Homo sapiens, UniProt P00734); assay: Inhibition of thrombin hydrolysis of chromogenic substrate S2238 (Ki); type: biochemical; details: S2238, pH 7.5
T1 construct: 0.2-0.5 nM human thrombin or human factor Xa; purchased Enzyme Research Laboratories, South Bend, Ind
Method: The effectiveness of compounds of the present invention as inhibitors of blood coagulation proteases was determined using purified human proteases and synthetic substrates following procedures similar to those described in Kettner et al. (1990).
For these assays, the rate of enzymatic (thrombin, Factor Xa, and Factor VIIa) hydrolysis of chromogenic substrates (S2238 (H-D-Phe-Pip-Arg-pNA), S2222, and S2288, respectively; Kabi Pharmacia, Franklin, Ohio) was measured both in the absence and presence of compounds of the present invention. […] A decrease in the rate of absorbance change at 405 nm in the presence of inhibitor is indicative of enzyme inhibition. The results of this assay are expressed as inhibitory constant, Ki.
Thrombin and Xa determinations were made in 0.10M sodium phosphate buffer, pH 7.5, containing 0.20M NaCl, and 0.5% PEG 8000. VIIa determinations were made in 0.05M tris buffer, pH 7.6, containing 0.10M NaCl, 4 mM CaCl2, and 0.1% bovine serum albumin.
Reactions were allowed to go for 30 minutes and the velocities (rate of absorbance change vs time) were measured in the time frame of 25-30 minutes. The following relationship was used to calculate Ki values. [formula] where: vo is the velocity of the control in the absence of inhibitor;
vs is the velocity in the presence of inhibitor;
I is the concentration of inhibitor;
Ki is the dissociation constant of the enzyme: inhibitor complex;
S is the concentration of substrate;
Km is the Michaelis constant.

Ki	Structure (SMILES)
< 500 nM	CC1(C)C2CC3OB(C(Cc4cccc(C#N)c4)NC(=O)[C@@H]4CCCN4C(=O)/C=C/c4cccnc4)OC3(C)C1C2 (stereo in doubt) [Example 42, trans-3-(3-pyridyl)acryl-Pro--boroPhe(m-CN)--C10 H16]
< 500 nM	CC(=O)NC(Cc1ccccc1)C(=O)N1CCCC1C(=O)NC(CCCCC(=N)N)B1OC2CC3CC(C3(C)C)C2(C)O1 (centres unmarked) [Example 2, Ac--(D)Phe--Pro--NH--CH[(CH2)4 --C(NH)NH2]BO2 C10 H16.BSA]
< 500 nM	CC(=O)NC(Cc1ccccc1)C(=O)N1CCCC1C(=O)NC(Cc1cccc(CN)c1)B1OC2CC3CC(C3(C)C)C2(C)O1 (centres unmarked) [Example 13, Ac--(D)Phe--Pro--boroPhe--(m-CH2NH2)--C10 H16.HCl]
< 500 nM	CC(=O)N[C@H](Cc1ccccc1)C(=O)N1CCC[C@H]1C(=O)N[C@@H](Cc1cccc(Br)c1)B1O[C@@H]2C[C@@H]3C[C@@H](C3(C)C)[C@]2(C)O1 [Example 14, Ac--(D)Phe--Pro--boroPhe(m-Br)--C10 H16]
< 500 nM	CC(=O)NC(Cc1ccccc1)C(=O)N1CCCC1C(=O)NC(CCCNC(N)=NC#N)B1OC2CC3CC(C3(C)C)C2(C)O1 (centres unmarked) [Example 15, Ac--(D)Phe--Pro--boroArg(CN)--C10 H16.HCl]
< 500 nM	CC(=O)NC(Cc1ccccc1)C(=O)N1CCCC1C(=O)NC(Cc1ccc(C#N)cc1)B1OC2CC3CC(C3(C)C)C2(C)O1 (centres unmarked) [Example 16, Ac--(D)Phe--Pro--boroPhe(p-CN)--C10 H16]
< 500 nM	CC(C)(C)OC(=O)NC(Cc1ccccc1)C(=O)N1CCCC1C(=O)NC(Cc1cccc(C#N)c1)B1OC2CC3CC(C3(C)C)C2(C)O1 (centres unmarked) [Example 17, Boc--(D)Phe--Pro--boroPhe(m-CN)--C10 H16]
< 500 nM	N#Cc1cccc(CC(NC(=O)C2CCCN2C(=O)C(N)Cc2ccccc2)B(O)O)c1 (centres unmarked) [Example 19, H--(D)Phe--Pro--boroPhe(m-CN)--OH.HCl]
< 500 nM	CC(=O)NC(Cc1ccccc1)C(=O)N1CCCC1C(=O)NC(Cc1ccc(CN)cc1)B1OC2CC3CC(C3(C)C)C2(C)O1 (centres unmarked) [Example 21, Ac--(D)Phe--Pro--boroPhe(p-CH2 NH2)--C10 H16.BSA]
< 500 nM	CC(=O)NC(Cc1ccccc1)C(=O)N1CCCC1C(=O)NC(Cc1ccc(C(=N)N)cc1)B1OC2CC3CC(C3(C)C)C2(C)O1 (centres unmarked) [Example 22, Ac--(D)Phe--Pro--boroPhe(p-C(NH)NH2)--C10 H16.BSA]
< 50000 nM	CC1(C)C2CC3OB(C(Cc4cccc(C#N)c4)NC(=O)C4CCCN4)OC3(C)C1C2 (centres unmarked) [Example 26, H--Pro--boroPhe(m-CN)--C10 H16.HCl]
< 500 nM	CN(C(=O)OC(C)(C)C)C(Cc1ccccc1)C(=O)N1CCCC1C(=O)NC(Cc1cccc(C#N)c1)B1OC2CC3CC(C3(C)C)C2(C)O1 (centres unmarked) [Example 33, N--Boc--N--CH3 --(D)Phe--Pro--boroPhe(m-CN)--C10 H16]
< 500 nM	CC1(C)C2CC3OB(C(Cc4cccc(C#N)c4)NC(=O)C4CCCN4C(=O)CSc4ncccn4)OC3(C)C1C2 (centres unmarked) [Example 41, (2-Pyrimidylthio)acetyl-Pro--boroPhe(m-CN)--C10 H16]
< 500 nM	CC1(C)C2CC3OB(C(Cc4cccc(C#N)c4)NC(=O)C4CCCN4C(=O)CSc4ccncc4)OC3(C)C1C2 (centres unmarked) [Example 43, (4-Pyridylthio)acetyl-Pro--boroPhe(m-CN)--C10 H16]
< 500 nM	N#Cc1cccc(CC(NC(=O)C2CCCN2C(=O)C(Cc2ccccc2)NC(=O)CCC(=O)O)B(O)O)c1 (centres unmarked) [Example 44, Succinyl-(D)Phe--Pro--boroPhe(m-CN)--OH]
< 500 nM	CC1(C)C2CC3OB(C(Cc4cccc(C#N)c4)NC(=O)C4CCCN4C(=O)CCc4cccnc4)OC3(C)C1C2 (centres unmarked) [Example 45, 3-Pyridylpropionyl-Pro--boroPhe(m-CN)--C10 H16]
< 500 nM	CC(C)(C)OC(=O)NC(Cc1ccccc1)C(=O)N1CCC1C(=O)NC(Cc1cccc(C#N)c1)B1OC2CC3CC(C3(C)C)C2(C)O1 (centres unmarked) [Example 46, Boc--(D)Phe--Aze--boroPhe(m-CN)--C10 H16]
< 500 nM	CC1(C)C2CC3OB(C(Cc4cccc(C#N)c4)NC(=O)C4CCN4C(=O)C(N)Cc4ccccc4)OC3(C)C1C2 (centres unmarked) [Example 47, H--(D)Phe--Aze--boroPhe(m-CN)--C10 H16.HCl]
< 500 nM	CCCS(=O)(=O)N[C@H](Cc1ccccc1)C(=O)N1CCC[C@H]1C(=O)N[C@@H](CCCNC=N)B(O)O [Example 63, CH3 CH2 CH2 SO2 --(D)Phe--Pro--boroOrn(CH=NH)--OH.HCl]
< 500 nM	CCCS(=O)(=O)NC(Cc1ccccc1)C(=O)N1CCCC1C(=O)NC(CCCNC(=N)NC)B(O)O (centres unmarked) [Example 64, CH3 CH2 CH2 SO2 --(D)Phe--Pro--boroArg(CH3)--OH.HCl]
< 500 nM	CC(=O)NC(Cc1ccccc1)C(=O)N(C)CC(=O)NC(CCCNC=N)B(O)O (centres unmarked) [Example 67, Ac--(D)Phe--Sar--boroOrn(CH=NH)--OH.HCl]
< 500 nM	CN(CC(=O)NC(CCCNC=N)B(O)O)C(=O)C(Cc1ccccc1)NS(C)(=O)=O (centres unmarked) [Example 68, Ms--(D)Phe--Sar--boroOrn(CH=NH)--OH.HCI]
< 500 nM	CN(CC(=O)NC(CCCNC=N)B(O)O)C(=O)C(Cc1ccccc1)NS(=O)(=O)CCc1ccccc1 (centres unmarked) [Example 69, Phenethyl-SO2 --(D)Phe--Sar--boroOrn(CH=NH)--OH.HCl]
< 500 nM	CN(CC(=O)NC(CCCNC=N)B(O)O)C(=O)C(Cc1ccccc1)NC(=O)OC(C)(C)C (centres unmarked) [Example 70, Boc--(D)Phe--Sar--boroOrn(CH=NH)--OH.HCl]
< 500 nM	CN(CC(=O)NC(Cc1cccc(C#N)c1)B1OC2CC3CC(C3(C)C)C2(C)O1)C(=O)C(Cc1ccccc1)NC(=O)OC(C)(C)C (centres unmarked) [Example 73, Boc--(D)Phe--Sar--boroPhe(m-CN)--C10 H16]
< 500 nM	CC1(C)C2CC3OB(C(CCCNC=N)NC(=O)c4ccc(-c5ccccc5)cc4)OC3(C)C1C2 (centres unmarked) [Example 76, 4-(Phenyl)benzoyl-boroOrn(CH=NH)--C10 H16.HCl]
< 500 nM	CC1(C)C2CC3OB(C(CCCON)NC(=O)C4CCCN4C(=O)C(Cc4ccccc4)NS(=O)(=O)Cc4ccccc4)OC3(C)C1C2 (centres unmarked) [Example 103, PhCH2 SO2 --(D)Phe--Pro--boroGly[(CH2)3 --ONH2]--C10 H16.HCl]
< 500 nM	CC(C)(C)OC(=O)NC(Cc1ccccc1)C(=O)N1CCCC1C(=O)NC(CCCONC(=N)N)B1OC2CC3CC(C3(C)C)C2(C)O1 (centres unmarked) [Example 104, Boc--(D)Phe--Pro--boroGly[(CH2)3 --ONHC(=NH)NH2]--C10 H16.HCl]
< 500 nM	CNC(=NC#N)NCCCC(NC(=O)C1CCCN1C(=O)C(Cc1ccccc1)NC(=O)OC(C)(C)C)B1OC2CC3CC(C3(C)C)C2(C)O1 (centres unmarked) [Example 105, Boc--(D)Phe--Pro--boroOrn--[C(NCN)NHCH3]--C10 H16]
< 500 nM	CC(C)(C)OC(=O)NC(Cc1ccccc1)C(=O)N1CCCC1C(=O)NC(CCCNC(N)=O)B1OC2CC3CC(C3(C)C)C2(C)O1 (centres unmarked) [Example 108, Boc--(D)Phe--Pro--boroOrn(CONH2)--C10 H16]

Structure (SMILES)	Ki
CC(=O)N[C@H](Cc1ccccc1)C(=O)N1CCC[C@H]1C(=O)NC(CCCCC#N)B1OC2CC3CC(C3(C)C)C2(C)O1 (some centres unmarked) [Example 1, Ac--(D)Phe--Pro--NH--CH[(CH2)4 CN]BO2 C10 H16]	< 50000 nM
CC(C)(C)OC(=O)N[C@H](Cc1ccccc1)C(=O)N1CCC[C@H]1C(=O)NC(CCCNC=N)B1OC2CC3CC(C3(C)C)C2(C)O1 (some centres unmarked) [Example 6, Boc--(D)Phe--Pro--boroOrn(CH=NH)]--C10 H16.0.5 HCl.0.5 BSA]	< 500 nM
